Experimental data: patent US10912756B2, “Method for the treatment of human melanoma” (UNIWERSYTET JAGIELLONSKI, priority 2017, dated 2021)
≈ marks a conversion by molar mass, not a printed value.

Tests used:
human melanoma cells [1] = test: Taxol take-up into cells, HPLC (conclusions over the lines); assay type: cell-based; settings: for effect on take-up of taxanes into human melanoma cells: statin with docetaxel
[2] = tested on: WM35 human melanoma cells; test: Taxol take-up into cells, HPLC; assay type: cell-based
Method: (§1) The tests were carried out using cell lines of human melanoma originating from three stages of development: WM35 of the radial growth phase, WM239A metastatic line and A375P metastasis to lungs, malignant line. For every measuring point, cells were grown in 4 100 mm coming dishes for each separate cell line. […] The analyses were repeated thrice in independent experiments, obtaining similar results. The results were averaged and reported in μM per a million of cells. The cells were counted using a Countess Invitrogen™ counter.
(§2) For determination of the amount of drug absorbed by the melanoma cells, chromatographic method was used. An HPLC system (Shimadzu Corporation Japan) consisting of two LC 10AT vp high-pressure pumps, a DGU-14A degasser, a CTO-10 ASvp oven for the column thermostating, an SIL-10 ADvp automatic sample feeder, and an SPD-M10 Avp diode detector, was used for the measurements. CLASS-VP 7.2.1 software was used.
(§3) The samples were separated on a Phenomenex Gemini −Nx 5μ C18 (4.6×150 mm i.d) column+guard column from Phenomenex (4×3 mm i.d.) with identical packing, at a temperature of 20° C. Eluant with the following composition: solvent A (water+0.1% trifluoroacetic acid [TFA]) and solvent B (acetonitrile 0.1% TFA) was used. The sample was separated in the following gradient system: 20% of solvent B to 30% of solvent B linearly for 15 min, next linearly to 34% for 6 min, linearly to 100% of solvent B for 24 min consecutively, then 10 min isocratically at 100% of solvent B. The column was recalibrated for […] in 20% of solvent B. 20-μl samples were introduced at a flowrate of 1.0 ml/min during 65 min with a UV-Vis detection at 220 nm.
(§4) The results were validated in two steps, by comparing the obtained Rt values to Rt values of standards, and by analysis of spectra of the separated compound and their comparison with spectra of the standards.
(§5) A frozen dry pellet was flushed with 650 μl of a solution (2/1 isopropanol, methanol+10% acetonitrile), then sonicated 3×15 s and frozen for 24 h. After thawing, the sample was shaken lightly for 30 min, 200 μl of physiological saline and 1083 μl of chloroform were added, stirring vigorously for 3×4 min. Separation of the organic phase from the aqueous phase was carried out by centrifugation at 10,000 revolutions/10 min. The collected chloroform phase were subjected to concentration under partial vacuum in a concentrator at 4° C., and to second drying under argon atmosphere. The precipitate was dissolved in 100 μl of methanol and separated by HPLC.
(§6) The tests were carried out using methods described in detail in Example 3.

[3] = tested on: human melanoma cells (WM35, WM239A, A375P); test: "crystal violet" proliferation assay; assay type: cell-based; settings: statin 50-12.5 μM with docetaxel regimen at constant 0.5 μM
Method: The tests were carried out using cell lines of human melanoma originating from three stages of development: WM35 of the radial growth phase, WM239A metastatic line and A375P metastasis to lungs, malignant line.
The following statins were used in the studies: atorvastatin, fluvastatin, rosuvastatin, and pravastatin. The tests were carried out using cell lines of human melanoma originating from invasive stages of development: WM239A metastatic line and A375P P-metastasis to lungs, malignant line. […] Methodology according to that described in Example 1 was used. Additionally, the toxicity was analysed by investigations of reduced and oxidised glutathione contents. HPLC method was used.

ovarian cancer = settings: cited from earlier work
breast cancer = settings: cited from earlier work
lung cancer = settings: cited from earlier work
human fibroblast cells = test: "crystal violet" proliferation assay; settings: simvastatin in various concentrations with TCM regimen
[4] = water/n-octanol; cited from earlier work
human melanoma cells [5] = test: GSH/GSSG toxicity (conclusions over the lines); assay type: cell-based; settings: GSH/GSSG contents; statin 20 μM with Docetaxel 0.5 μM
Method: (§7) Toxicities of the applied drugs were tested by a measurement of reduced and oxidised glutathione GSH/GSSG contents in the human melanoma cells. The glutathione contents were analysed by RP-HPLC. A method from prior art [references 1-4] was used.
(§8) The applied method consists in a reaction of GSH and GSSG with N-dinitrofluorobenzene, yielding N,S-dinitro-derivatives in the case of GSH and N,N-dinitro-derivatives in the case of GSSG. The elutions were carried out in a water-acetonitrile system, in accordance to the increasing acetonitrile concentration.
Determination of the levels of reduced glutathione, oxidised glutathione, and total glutathione were carried out using an RP-HPLC system from Shimadzu (SPD-M10VP photodiode matrix detector, class VP 7.2 software). The separations were carried out at a temperature of 20° C. using a Luna 5u C18 (Z) column (250 mm×4.6 mm, from Phenomenex), with a guard column with the same packing. Grade solvents were used as the eluant in the separations: acetonitrile/0.1% TFA and H2O/0.1% TFA. The separation was obtained in gradient elution, under a non-linear increase in the acetonitrile concentration from 20% to 100% during 90 minutes, at a flow of 1.0 ml/min. […]
Toxicities of the applied drugs were tested by a measurement of GSH/GSSG contents in the human melanoma cells. The glutathione contents were analysed by HPLC. […]

[6] = cited from earlier work
[7] = tested on: A375P human melanoma cells; test: GSH/GSSG glutathione content and cell count (toxicity), RP-HPLC; assay type: cell-based; settings: Docetaxel 0.5 μM, statin 20 μM
Method: as §7, §8
(§9) Determination of the levels of reduced glutathione, oxidised glutathione, and total glutathione were carried out using an RP-HPLC system from Shimadzu (SPD-M10VP photodiode matrix detector, class VP 7.2 software). The separations were carried out at a temperature of 20° C. using a Luna 5u C18 (Z) column (250 mm×4.6 mm, from Phenomenex), with a guard column with the same packing. Grade solvents were used as the eluant in the separations: acetonitrile/0.1% TFA and H2O/0.1% TFA. The separation was obtained in gradient elution, under a non-linear increase in the acetonitrile concentration from 20% to 100% during 90 minutes, at a flow of 1.0 ml/min. Samples with a volume of 20 μl were introduced into the column, filtered earlier using PTFE filters with a pore diameter of 0.2 μm (Supelco). The analysis of the compounds was carried out with UV-VIS detection at 365 nm. The cells were suspended in a 70% PCA/1 mM BPDS/0.9% NaCl solution in a 1:3 ratio, sonicated for 3×5 seconds (Bandelin SonoplusGM70) at a temperature of 4° C. and centrifuged under 1400 g at a temperature of 4° C. for 10 minutes. The prepared supernatant was used for the assays.
(§10) For identification of the tested compounds, proper standard solutions were used: GSH and GSSG.
(§11) All standard solutions were prepared in 10% PCA/1 mM BPDS, in redistilled water.
(§12) To determine the GSH and GSSG levels, calibration curves were used, prepared for standard solutions in the concentration range of 13 to 75 nmol/ml of the corresponding cell homogenate. The incubation mixture contained, respectively: supernatant originating from the cells, N-methyl-L-lysine (internal standard), 10% PCA/1 mM BPDS, 2 M KOH-2.4 M KHCO3 and 1% DNFB.
(§13) In the case of the calibration curve, the incubation mixture was prepared in an analogous way, but various volumes of standard solutions were added, and the final volume was controlled by the amount of the 10% PCA/1 mM BPDS added. After 24 h derivatization at room temperature, in darkness, the samples were acidified by adding 70% PCA and centrifuged for 2 minutes under 5600 g. The obtained supernatant was filtered through a PTFE-Supelco filter, introduced into the column, and 90-minute separation of the analysed compounds was carried out. The chromatograms were worked out identifying the compounds being separated according to their retention times, based on the standards available, and totalising the surface areas of the chromatographic peaks in the ranges of selected retention times.
(§14) Toxicities of the applied drugs were tested by a measurement of GSH/GSSG contents in the human melanoma cells. The glutathione contents were analysed by HPLC. A method drawn from the papers by [Bronowicka, Wróbel, Dominik] was used, described in detail in Example 2.

[8] = tested on: WM239A human melanoma cells; test: as above; assay type: cell-based; settings: Docetaxel 0.5 μM, statin 20 μM
Method: as §7, §8, §9, §10, §11, §12, §13, §14

[9] = tested on: WM35 human melanoma cells; test: as above; assay type: cell-based; settings: Docetaxel 0.5 μM, statin 20 μM
Method: as §7, §8, §9, §10, §11, §12, §13, §14

[10] = tested on: A375P human melanoma cells; test: Taxol take-up into cells, HPLC; assay type: cell-based
Method: as §1, §2, §3, §4, §5, §6

[11] = tested on: WM239A human melanoma cells; test: Taxol take-up into cells, HPLC; assay type: cell-based
Method: as §1, §2, §3, §4, §5, §6

[12] = cell count 22.5 mln, in the presence of various statins
[13] = relative to Docetaxel (T) = 100
[14] = cell count 34.2 mln, in the presence of various statins
[15] = WM 35, cell count 35.4 mln, in the presence of various statins

## CC(C)c1c(C(=O)Nc2ccccc2)c(-c2ccccc2)c(-c2ccc(F)cc2)n1CC[C@@H](O)C[C@@H](O)CC(=O)O [atorvastatin]
Human melanoma cells [1]; melanoma cells from more advanced progression phases, vs Taxol alone
  take-ups higher by: 30-45%
Human melanoma cells [1]
  effect on take-up of taxanes into human melanoma cells: selectively increases the taxanes take-up into human melanoma cells
[2]; WM35 (radial phase), in relation to the control with Taxol alone
  increase of Taxol content in melanoma cells, on average: two hundred percent
[3]
  effect on proliferation of human melanoma cells: permanently inhibit synergistically

## CC(=O)O[C@H]1C(=O)[C@@]2(C)[C@H]([C@H](OC(=O)c3ccccc3)[C@]3(O)C[C@H](OC(=O)[C@H](O)[C@@H](NC(=O)c4ccccc4)c4ccccc4)C(C)=C1C3(C)C)[C@]1(OC(C)=O)CO[C@@H]1C[C@@H]2O [Paclitaxel, paclitaxel]
Ovarian cancer
  efficiency in treatment: 30%
Breast cancer
  efficiency in treatment: 50%
Lung cancer
  efficiency in treatment: 20%

## CCC(C)(C)C(=O)O[C@H]1C[C@@H](C)C=C2C=C[C@H](C)[C@H](CC[C@@H]3C[C@@H](O)CC(=O)O3)[C@H]21 [simvastatin]
Human fibroblast cells
  effect on proliferation of normal cells: does not affect the normal cells of human skin such as fibroblasts

## CC[C@H](C)C(=O)O[C@H]1C[C@H](O)C=C2C=C[C@H](C)[C@H](CC[C@@H](O)C[C@@H](O)CC(=O)O)[C@H]21 [pravastatin]
[4]
  Log P: 0.59
Human melanoma cells [5]
  toxicity against human melanoma cells: is not toxic and it does not affect the malignant cells
[6]
  solubility in water: 19000 µg/mL (≈ 44800 µM)

## CC(=O)O[C@@]12CO[C@@H]1C[C@H](O)[C@@]1(C)C(=O)[C@H](O)C3=C(C)[C@@H](OC(=O)[C@H](O)[C@@H](NC(=O)OC(C)(C)C)c4ccccc4)C[C@@](O)([C@@H](OC(=O)c4ccccc4)[C@H]21)C3(C)C [T, Docetaxel]
[7]; 48 h
  GSH: 0.94 nmol/million of cells
  GSH/GSSG: 6.78
  GSSG: 0.14 nmol/million of cells
  Total glutathione: 1.22 nmol/million of cells
[7]; initial count 5.9 mln
  Cell count after 48 h: 11.1 mln
[8]; 48 h
  GSH: 1.07 nmol/million of cells
  GSH/GSSG: 6.53
  GSSG: 0.16 nmol/million of cells
  Total glutathione: 1.40 nmol/million of cells
[8]; initial count 6.2 mln
  Cell count after 48 h: 10.1 mln
[9]; 48 h
  GSH: 1.12 nmol/million of cells
  GSH/GSSG: 0.59
  GSSG: 1.88 nmol/million of cells
  Total glutathione: 4.8 nmol/million of cells
[9]; initial count 7.1 mln
  Cell count after 48 h: 10.1 mln
[10]; [12]
  Taxol concentration: 36 µM
  Taxol concentration per million of cells: 1.60 μM/million of cells
[10]; [13]
  % content in cells: 100%
[11]; [14]
  Taxol concentration: 74.8 µM
  Taxol concentration per million of cells: 2.18 μM/million of cells
[11]; [13]
  % content in cells: 100%
[2]; [15]
  Taxol concentration: 57.08 µM
  Taxol concentration per million of cells: 1.61 μM/million of cells
[2]; WM 35, relative to Docetaxel (T) = 100
  % content in cells: 100%

## CC(C)c1nc(N(C)S(C)(=O)=O)nc(-c2ccc(F)cc2)c1/C=C/[C@@H](O)C[C@@H](O)CC(=O)O [rosuvastatin]
[6]
  solubility in water: 88.6 µg/mL (≈ 184 µM)
Human melanoma cells [1]
  effect on take-up of taxanes into human melanoma cells: weaker effect

## CC(C)n1c(/C=C/C(O)CC(O)CC(=O)O)c(-c2ccc(F)cc2)c2ccccc21 (centres unmarked) [fluvastatin]
[6]
  solubility in water: 0.46 µg/mL (≈ 1.12 µM)
